This note sets out measurements from patent publication US20050153870A1, “Medicinal composition for diagnosis, prevention, or therapy of multiple risk factor syndrome” (priority 2002, published 2005).

Marks after values point to notes of the source that are not given here.

Assay [1] concerns Lean. In words: Body weight and blood sugar in Lean mice (Example 7). Format: in vivo, mouse. As to conditions: for Body weight / Blood sugar level: in feed for a week (MAC 0.05%, AS-103 0.05%, AR-610 0.1%, AF 0.4%, AC 0.05%); for Body weight: control group 20.9 ± 0.8; for Blood sugar level: control group 211.2 ± 7.8; for Blood sugar level, change vs control group / Body weight, change vs control group: in feed for a week, contents as in table. The procedure:
[The procedure below names another variant; the source lists this variant under the same test.] (§1) Powered feed to which ascofuranone (AF) and ascochlorin (AC) as well as its derivatives, 4-0-methylascochlorin (MAC), 4-0-carboxymethylascochlorin (AS-6), and 4-0-nicotinoyl ascochlorin (AS-103) were added to feed at the proportions shown in the table, and the feed were given to db/db mice for a week and then analyzed for blood sugar decreasing effect (8 mice/group).

For assay [2], the system named is Anesthetized rat. The experiment in a line: Blood pressure decreasing effect, acute test. In kind it is in vivo. The conditions noted are these: 2 mg/kg perorally. The method, then: Compounds of this series has an antihypertensive effect in various types of test animal models. The antihypertensive effect is confirmed not only in an acute test, in which arterial blood pressure of anesthetized rats and dogs is measured, but also in a chronic test using DOCA hypertensive rats, which are prepared by excising one of the kidneys and administering mineral corticoid and saline thereto, naturally-occurring hypertensive rats, which is an animal morbid model of essential hypertensive disease, and ob/ob mice, which are hereditary diabetic obese […].

The subject of assay [3] is Mouse, rat, beagle dog, quail, DOCA hypertension rat. In words: Serum cholesterol decreasing effect. Format: in vivo. The conditions noted are these: incl. rat and quail raised with hyperfat feed. The procedure: The quails are raised by giving a feed containing 2% cholesterol for 9 months to develop hypercholesteremia, and, in the case of the rats, mineral corticoid and saline are administered to allow them to develop heart and blood vessel disease and then hypercholesteremia.

The subject of assay [4] is db/db mice. The experiment in a line: Blood sugar decreasing effect in db/db mice (Example 7). In kind it is in vivo, mouse. The conditions noted are these: for Body weight / Blood sugar level: in feed for a week (MAC 0.05%, AS-103 0.05%, AR-610 0.1%, AF 0.4%, AC 0.05%); for Body weight: control group 44.6 ± 0.9; for Blood sugar level: control group 549.8 ± 21.8; for Blood sugar level, change vs control group / Body weight, change vs control group: in feed for a week, contents as in table. The procedure:
as §1

Assay [5] concerns Rat. The experiment in a line: Glucogenesis in the liver. In kind it is in vivo. The conditions noted are these: perorally. The source says: Compounds of this series suppresses hepatic glucogenesis which is induced by administration of dexamethazon to a rat. For this reason, it antagonizes the action of glucocorticoid in vivo. The compound further has an effect of suppressing steroid diabetes characterized by polydipsia and polyurea and urine sugar excretion induced by administering cortisol to a rat. […] These facts strongly support that compounds of this series is useful in preventing and/or treating visceral fat syndrome.

The subject of assay [6] is Mouse. In words: Appetite suppressing effect. In kind it is in vivo. The conditions noted are these: mouse fasted 48 hours; 1 to 2 mg/kg perorally one hour before feeding; feed given for 2 hours.
Assay [7] deals with SHR rat of high-incidence fat deposition group. In words: Fat deposition on the mesenteric artery. In kind it is in vivo. The conditions noted are these: perorally.

Take `CC(/C=C/[C@@]1(C)[C@H](C)CCC(=O)[C@@H]1C)=C\Cc1c(O)c(Cl)c(C)c(C=O)c1O` [AC, ascochlorin]: in assay [1], the Body weight is reported as 16.1 ± 0.3 g; the Blood sugar level came to 184.8 ± 10.9 mg/dL; the “Blood sugar level, change vs control group” value (from here on “Blood sugar level, change”) is reported as −12.5%**; the “Body weight, change vs control group” value is listed as −23.0%**. In addition, the “decrease of average blood pressure of the carotid artery” value in assay [2] is listed as “decreases by 20 to 30 mmHg”. The “serum cholesterol decreasing effect” value in assay [3] was “carboxymethylascochlorin, and ascofuranone exhibits an effect of decreasing serum”. In assay [4], the Body weight is 38.9 ± 1.8 g; the Blood sugar level was 262.1 ± 11.8 mg/dL; the “Blood sugar level, change” value is on record as −52.3%**; the “Body weight, change vs control group” value was −12.8%**. Also, the “glucogenesis performed in the liver” value in assay [5] was “performed in the liver is suppressed”. Further, in assay [6], the “amount of feed (appetite suppressing effect)” value is “feed is suppressed in a dose dependent manner”.

Turning to `C/C(=C\Cc1c(O)c(Cl)c(C)c(C=O)c1O)CC/C=C(\C)[C@@H]1CC(=O)C(C)(C)O1` [AF, ascofuranone], in assay [1], the Body weight is given as 21.8 ± 0.4 g; the Blood sugar level was 161.1 ± 8.3 mg/dL; the “Blood sugar level, change” value is reported as −23.7%**; the “Body weight, change vs control group” value was “ns”. Also, in assay [3], the “serum cholesterol decreasing effect” value was “carboxymethylascochlorin, and ascofuranone exhibits an effect of decreasing serum”. Also, the “fat deposition in a ring form on the mesenteric artery” value in assay [7] is recorded as “mesenteric artery, disappearance of fat deposition is accelerated”. In assay [4], the Body weight was determined as 44.8 ± 1.4 g; the Blood sugar level is recorded as 385.5 ± 40.9 mg/dL; the “Blood sugar level, change” value was −29.9%**; the “Body weight, change vs control group” value is “ns”.

Consider `CC(/C=C/C1(C)C(C)CCC(=O)C1C)=C\Cc1c(O)c(C=O)c(C)c(Cl)c1OC(=O)c1cccnc1` (stereo not drawn) [AS-103, 4-0-nicotinoyl ascochlorin], for which, in assay [1], the Body weight is 18.4 ± 0.3 g; the Blood sugar level is reported as 181.8 ± 7.6 mg/dL; the “Blood sugar level, change” value is on record as −13.9%*; the “Body weight, change vs control group” value is recorded as −12.0%**. For the same compound, in assay [4], the Body weight turned out to be 42.0 ± 1.9 g; the Blood sugar level was determined as 331.3 ± 45.2 mg/dL; the “Blood sugar level, change” value is listed as −39.7%**; the “Body weight, change vs control group” value is recorded as “ns”.
